Assay results as given in US5716928A, “Use of essential oils to increase bioavailability of oral pharmaceutical compounds” (priority 1995, dated 1998).

System: rat cytochrome P450 3A
Conditions: for % inhibition of cyclosporine metabolism, repeat 0.0001(SD) (Table 2) / % inhibition of cyclosporine metabolism, 0.0001% (Table 2): oil ingredient 0.0001 wt. %; for % inhibition of cyclosporine metabolism, repeat 0.0001(SD) (Table 2): repeat assay(s), SD in parentheses; for % inhibition of cyclosporine metabolism, 0.0001% (Table 2) / % inhibition of cyclosporine metabolism, 0.001% (Table 2) / % inhibition of cyclosporine metabolism, 0.01% (Table 2): from solvent baseline; for % inhibition of cyclosporine metabolism, 0.001% (Table 2): oil ingredient 0.001 wt. %; for % inhibition of cyclosporine metabolism, 0.01% (Table 2): oil ingredient 0.01 wt. %

Structure (SMILES)	% inhibition of cyclosporine metabolism, 0.0001% (Table 2) [%]	% inhibition of cyclosporine metabolism, 0.001% (Table 2) [%]	% inhibition of cyclosporine metabolism, 0.01% (Table 2) [%]	other results
CC12CCC(CC1=O)C2(C)C (racemic) [Camphor-(±), 1,7,7-Trimethylbicyclo [2.2.1] heptan-2-one]				% inhibition of cyclosporine metabolism, repeat 0.001 (SD) (Table 2) (microsomes): 53(3) %
C=CC(C)(O)CCC=C(C)C (racemic) [Linalool-(±), 3,7-Dimethyl-1,6-octadien-3-ol]	41	72.0	85	% inhibition of cyclosporine metabolism, repeat 0.0001(SD) (Table 2): -7(9) %
CCC=CCC1C(=O)CCC1CC(=O)OC (racemic) [Methyl Jasmonate-(±), Methyl-3-oxo-2-(2-pentenyl)-cyclopentane acetate]	-27	65		
C=C1C2CCC(C2)C1(C)C (single isomer, unassigned) [Camphene-(+), 2,2-Dimethyl-3-methylenebicyclo[2.2.1]heptane]	-49	12.4		
C=C(C)C1CC=C(C)C(O)C1 (single isomer, unassigned) [Carveol-(-), p-Mentha-6,8-dien-2-ot]	2	60		
CC=C(C)C=CC=C(C)C [Allo Ocimene, 2,6-Dimethyl-2,4,6-octatriene]	6	22		
C/C=C/c1ccc(OC)cc1 [Anethole, trans-, 4-Propenylanisole]		53	100	
O=C(/C=C/c1ccccc1)OCc1ccccc1 [Benzyl Cinnamate, Benzyl 3-phenylpropenoic acid]	7	-45		
COc1cc(CNC(=O)CCCC/C=C/C(C)C)ccc1O [Capsaicin, trans-8-Methyl-N-vanillyl-6 nonenamide]	27	68		
Cc1ccc(C(C)C)cc1O [Carvacrol, 5-isoPropyl-2-methylphenol]	11	93	97	
C=C(C)[C@@H]1CC=C(C)C(=O)C1 [Carvone-(R)-(-), p-Mentha-6,8-dien-2-one]	27	69	100	
C=C(C)[C@H]1CC=C(C)C(=O)C1 [Carvone-(S)-(+), p-Mentha-6,8-dien-2-one]	30	70.5		
C=C1CC/C=C(\C)CC[C@@H]2[C@@H]1CC2(C)C [Caryophyllene, trans-(-), β Caryophyllene]	26	85		
O=C/C=C/c1ccccc1 [Cinnamic Aldehyde, trans-, 3-Phenylpropenaldehyde]		29.0	78	
CC(C)=CCC/C(C)=C/C=O [Citral]	44	54	99	
CC(C)=CCCC(C)CCO (stereo not drawn) [Citronellol-(DL)-(β), 3,7-Dimethyl-6-octen-1-ol]	41	86	95	% inhibition of cyclosporine metabolism, repeat 0.0001(SD) (Table 2): 35(4) %
C=CCc1ccc(OC)cc1 [Estragole, 4-Allylanisole]	7	69.2	100	
CCOC(=O)/C=C/c1ccccc1 [Ethyl Cinnamate, trans-, Ethyl 3-phenylpropenoic acid]	-13	-16		
CCOc1cc(C=O)ccc1O [Ethyl Vanillin, 3-Ethoxy-4-hydroxybenzaledhyde]			58	

Structure (SMILES)	% inhibition of cyclosporine metabolism, 0.0001% (Table 2) [%]	% inhibition of cyclosporine metabolism, 0.001% (Table 2) [%]	% inhibition of cyclosporine metabolism, 0.01% (Table 2) [%]	other results
C=CCc1ccc(O)c(OC)c1 [Eugenol, 4-Allyl-2-methoxyphenol]	9.8	66	100	
CC(C)=CCC/C(C)=C/CC/C(C)=C/CO [Farnesol. trans-, trans-, 3,7,11-Trimethyl-2,6,10-dodecatrien-1-ol]	49	82		
CC1(C)[C@H]2CC[C@](C)(C2)[C@H]1O [Fenchol-(1R)-endo-(+), 1,3,3-Trimethylbicyclo [2.2.1] heptan-2-ol]	18	74	100	
CC1(C)C(=O)[C@]2(C)CC[C@H]1C2 [Fenchone-(1R)-(-), 1,3,3-Trimethylbicyclo [2.2.1] heptan-2-one]	14	38		
CC(=O)OC/C=C(\C)CCC=C(C)C [Geranyl Acetate, trans-3,7-Dimethyl-2,6-octadien-1-yl acetate]		51.5	73	
CC/C=C\CC1=C(C)CCC1=O [Jasmone, cis-, 3-Methyl-2-(2-pentenyl)-2-cyclopenten-1-one]	16.0	68		
CC(=O)N1CCN(c2ccc(OCC3COC(Cn4ccnc4)(c4ccc(Cl)cc4Cl)O3)cc2)CC1 (stereo not drawn) [Ketoconazole, reference compound]				% inhibition of cyclosporine metabolism, reference compound at 0.000001% (Table 3) (0.000001 %): 8%; % inhibition of cyclosporine metabolism, reference compound at 0.000005% (Table 3) (0.000005 %): 20%; % inhibition of cyclosporine metabolism, reference compound at 0.00001% (Table 3) (0.00001 %): 42%; % inhibition of cyclosporine metabolism, reference compound at 0.00005% (Table 3) (0.00005 %): 100%
C=C(C)[C@H]1CC=C(C)CC1 [Limonene-(R)-(+), p-Mentha-1,8-diene]		20	84	
C=C(C)[C@@H]1CC=C(C)CC1 [Limonene-(S)-(-), p-Mentha-1,8-diene]		30	82.3	
C=CC(C)(CCC=C(C)C)OC(C)=O (stereo not drawn) [Linalyl Acetate, 3,7-Dimethyl-1,6-octadien-3-yl acetate]		55.8	100	
COC(=O)c1ccccc1N [Mcthyl Anthranilate, Methyl 2-aminobenzoate]	-7	23		
CC(C)[C@@H]1CC[C@@H](C)CC1=O [Menthone-(-), p-Menthan-3-one]	14	52		
C=CC(=C)CCC=C(C)C [Myrcene-β, 7-Methyl-3-methylene-1,6-octadiene]	0	13		
C=C1CC[C@H]2C[C@@H]1C2(C)C [Pinene-(1S)-(-)-β, 6,6-Dimethyl-2-methylenebicyclo[3.1.1]heptane]	-10	60	88	
CC(C)=C1CC[C@@H](C)CC1=O [Pulegone-(R)-(+), p-Menth-4(8)-en-3-one]	-17	31		
CC1=CCC(O)(C(C)C)CC1 (stereo not drawn) [Terpinen-4-ol, p-Menth-1-en-4-ol]	3.81	80	100	
CC1=CC=C(C(C)C)CC1 [Terpinene-α, p-Mentha-1,3-diene]	-6	28		
CC1=CCC(C(C)(C)O)CC1 (stereo not drawn) [Terpineol-α, p-Menth-1-en-8-ol]	13.4	86	100	
